# How the values were obtained:
# common poppy (PAPRH) = test: Postemergence greenhouse trial, % visual injury on common poppy; assay type: in vivo, Papaver rhoeas; conditions: PAPRH; for % visual injury, Ob: CQC-m 0 g/ha; for pest or weed control at 4.375 g/ha / pest or weed control at 8.75 g/ha / pest or weed control at 17.5 g/ha / pest or weed control at 35 g/ha / pest or weed control at 70 g/ha: Papaver rhoeas, post-emergence, applied alone, read-out: % visual injury, Ob
# Procedure: (§1) Seeds of the desired test plant species were planted in Sun Gro MetroMix® 306 planting mixture, which typically has a pH of 6.0 to 6.8 and an organic matter content of about 30 percent, in plastic pots with a surface area of 103.2 square centimeters (cm^2). When required to ensure good germination and healthy plants, a fungicide treatment and/or other chemical or physical treatment was applied. The plants were grown for 7-36 days (d) in a greenhouse with an approximate 14-hour (h) photoperiod which was maintained at about 23° C. during the day and 22° C. during the night. Nutrients and water were added on a regular basis and supplemental lighting was provided with overhead metal halide 1000-Watt lamps as necessary. The plants were employed for testing when they reached the second or third true leaf stage.
# (§2) Weighed amounts of technical material were dissolved in a volume of 97:3 volume per volume (v/v) acetone/dimethyl sulfoxide (DMSO) to stock solutions. […] The concentrated stock solutions were diluted with an aqueous mixture of 1.5% v/v of Agri-dex crop oil concentrate to provide the appropriate application rates. Compound requirements are based upon a 12 milliliter (mL) application volume at a rate of 187 liters per hectare (L/ha). Stocks solutions of the safeners were prepared following the same procedure. Spray solutions of the safeners and experimental compound mixtures were prepared by adding the stock solutions to the appropriate amount of dilution solution to form a 12 mL spray solution in two-way combinations. Formulated compounds were applied to the plant material with an overhead Mandel track sprayer equipped with 8002E nozzles calibrated to deliver 187 L/ha over an application area of 0.503 square meters (m^2) at a spray height of 18 inches (43 centimeters (cm)) above average plant canopy. Control plants were sprayed in the same manner with the solvent blank. All herbicide application (component a) rates are in g ae/ha and all safener (component b) rates are in g ai/ha.
# (§3) The treated plants and control plants were placed in a greenhouse as described above and watered by sub-irrigation to prevent wash-off of the test compounds. After 20-22 d, the condition of the test plants as compared with that of the control plants was determined visually and scored on a scale of 0 to 100 percent where 0 corresponds to no injury and 100 corresponds to complete kill. Colby's equation was used to determine the herbicidal effects expected from the mixtures. […]
# spring barley (HORVS) = test: Postemergence greenhouse trial, % visual injury on spring barley; assay type: in vivo, Hordeum vulgare; conditions: HORVS
# Procedure: as §1, §2
# (§4) The treated plants and control plants were placed in a greenhouse as described above and watered by sub-irrigation to prevent wash-off of the test compounds. After 20-22 d, the condition of the test plants as compared with that of the control plants was determined visually and scored on a scale of 0 to 100 percent where 0 corresponds to no injury and 100 corresponds to complete kill. The condition of the test plants was compared with that of the control plants as determined visually and scored on a scale of 0 to 100 percent, where 0 corresponds to no injury and 100 corresponds to complete kill. Colby's equation was used to determine the herbicidal effects expected from the mixtures.
# The safener cloquintocet-mexyl was combined with compound 1, compound 2, compound 3, compound 7, compound 8, compound 9, compound 10, compound 11, compound 12, compound 13, compound 14, compound 15, compound 16, compound 17, compound 18, compound 19, and compound 20, and applied to spring wheat (TRZAS), winter wheat (TRZAW), and spring barley (HORVS) and the phytotoxicity of the herbicidal compositions was measured. […]
# Russian thistle (SASKR) = test: Postemergence greenhouse trial, % visual injury on Russian thistle; assay type: in vivo, Salsola kali; conditions: SASKR
# [1] = system: bird's-eye speedwell (VERPE); test: Postemergence greenhouse trial, % visual injury on bird's-eye speedwell; assay type: in vivo, Veronica persica; conditions: VERPE; for % visual injury, Ob: CQC-m 0 g/ha
# Procedure: as §1, §2, §3
# thistle (CIRAR) = test: Postemergence greenhouse trial, % visual injury on thistle; assay type: in vivo, Cirsium arvense; conditions: Cirsium arvense, post-emergence, CIRAR, applied alone, read-out: % visual injury, Ob
# Procedure: as §1, §2, §4
# The safener cloquintocet-mexyl was combined with compound 1, compound 2, compound 4, compound 5, and compound 6, and applied to corn/maize (ZEAMX) and spring wheat (TRZAS) and the phytotoxicity of the herbicidal compositions was measured. In addition, the efficacy of the herbicidal composition on velvetleaf (ABUTH, Abutilon theophrasti), pigweed (AMARE, Amaranthus retroflexus), winter rape (BRSNW, Brassica napus), lambsquarters (CHEAL, Chenopodium album), thistle (CIRAR, Cirsium arvense), nutsedge (CYPES, Cyperus esculentus), poinsettia (EPHHL, Euphorbia heterophylla), wild buckwheat (POLCO, Polygonum convolvulus), giant foxtail (SETFA, Setaria faberi), and chickweed (STEME, Stellaria media) was evaluated. […]
# pigweed (AMARE) = test: Postemergence greenhouse trial, % visual injury on pigweed; assay type: in vivo, Amaranthus retroflexus; conditions: Amaranthus retroflexus, post-emergence, AMARE, applied alone, read-out: % visual injury, Ob
# Outline: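 Postemergence greenhouse spray (187 L/ha, 1.5% v/v Agri-dex in water, acetone/DMSO stocks) on plants at second–third true leaf stage, ~23/22 °C, 14 h photoperiod; herbicides in g ae/ha, safener cloquintocet-mexyl in g ai/ha. Visual injury 0–100% versus solvent-blank controls after 20–22 d; Colby's equation gave expected mixture effects.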
# [2] = compound 8 4.380 + CQC-m 0 g/ha
# [3] = compound 4.375 g/ha, CQC-m 0 g/ha
# [4] = compound 8.75 g/ha, CQC-m 0 g/ha
# [5] = compound 17.5 g/ha, CQC-m 0 g/ha
smiles,measurement,setting,value
COC(=O)c1nc(-c2ccc3cc[nH]c3c2F)c(F)c(N)c1Cl [compound 8],"% visual injury, observed (Ob)",common poppy (PAPRH); [2],97%
same,"% visual injury, observed (Ob)",common poppy (PAPRH); compound 8 8.75 + CQC-m 0 g/ha,99%
same,"% visual injury, observed (Ob)",common poppy (PAPRH); compound 8 17.5 + CQC-m 0 g/ha,100%
same,"% visual injury, observed (Ob)",common poppy (PAPRH); compound 8 35 + CQC-m 0 g/ha,100%
same,"% visual injury, observed (Ob)",common poppy (PAPRH); compound 8 70 + CQC-m 0 g/ha,100%
same,"% visual injury, observed (Ob)",spring barley (HORVS); [2],12%
same,"% visual injury, observed (Ob)",spring barley (HORVS); compound 8 8.75 + CQC-m 0 g/ha,18%
same,"% visual injury, observed (Ob)",spring barley (HORVS); compound 8 17.5 + CQC-m 0 g/ha,31%
same,"% visual injury, observed (Ob)",spring barley (HORVS); compound 8 35 + CQC-m 0 g/ha,43%
same,"% visual injury, observed (Ob)",spring barley (HORVS); compound 8 70 + CQC-m 0 g/ha,53%
same,"% visual injury, observed (Ob)",Russian thistle (SASKR); [2],61%
same,"% visual injury, observed (Ob)",Russian thistle (SASKR); compound 8 8.75 + CQC-m 0 g/ha,69%
same,"% visual injury, observed (Ob)",Russian thistle (SASKR); compound 8 17.5 + CQC-m 0 g/ha,83%
same,"% visual injury, observed (Ob)",Russian thistle (SASKR); compound 8 35 + CQC-m 0 g/ha,85%
same,"% visual injury, observed (Ob)",Russian thistle (SASKR); compound 8 70 + CQC-m 0 g/ha,90%
same,"% visual injury, observed (Ob)",[1]; [2],83%
same,"% visual injury, observed (Ob)",[1]; compound 8 8.75 + CQC-m 0 g/ha,92%
same,"% visual injury, observed (Ob)",[1]; compound 8 17.5 + CQC-m 0 g/ha,96%
same,"% visual injury, observed (Ob)",[1]; compound 8 35 + CQC-m 0 g/ha,98%
same,"% visual injury, observed (Ob)",[1]; compound 8 70 + CQC-m 0 g/ha,100%
COc1c(C(=O)O)nc(-c2ccc3cc[nH]c3c2F)c(F)c1N [compound 13],"% visual injury, Ob",common poppy (PAPRH); compound 4.375 g/ha,90%
same,"% visual injury, Ob",common poppy (PAPRH); compound 8.75 g/ha,100%
same,"% visual injury, Ob",common poppy (PAPRH); compound 17.5 g/ha,100%
same,"% visual injury, Ob",common poppy (PAPRH); compound 35 g/ha,100%
same,"% visual injury, Ob",common poppy (PAPRH); compound 70 g/ha,100%
same,"% visual injury, Ob",spring barley (HORVS); [3],30%
same,"% visual injury, Ob",spring barley (HORVS); [4],38%
same,"% visual injury, Ob",spring barley (HORVS); [5],55%
same,"% visual injury, Ob","spring barley (HORVS); compound 35 g/ha, CQC-m 0 g/ha",64%
same,"% visual injury, Ob","spring barley (HORVS); compound 70 g/ha, CQC-m 0 g/ha",73%
same,"% visual injury, Ob",Russian thistle (SASKR); [3],50%
same,"% visual injury, Ob",Russian thistle (SASKR); [4],65%
same,"% visual injury, Ob",Russian thistle (SASKR); [5],77%
same,"% visual injury, Ob","Russian thistle (SASKR); compound 35 g/ha, CQC-m 0 g/ha",83%
same,"% visual injury, Ob","Russian thistle (SASKR); compound 70 g/ha, CQC-m 0 g/ha",91%
same,"% visual injury, Ob",[1]; compound 4.375 g/ha,85%
same,"% visual injury, Ob",[1]; compound 8.75 g/ha,93%
same,"% visual injury, Ob",[1]; compound 17.5 g/ha,98%
same,"% visual injury, Ob",[1]; compound 35 g/ha,98%
same,"% visual injury, Ob",[1]; compound 70 g/ha,100%
Nc1c(F)c(-c2ccc3scnc3c2)nc(C(=O)O)c1Cl [compound 17],pest or weed control at 4.375 g/ha,thistle (CIRAR),0%
same,pest or weed control at 8.75 g/ha,thistle (CIRAR),0%
same,pest or weed control at 17.5 g/ha,thistle (CIRAR),10%
same,pest or weed control at 35 g/ha,thistle (CIRAR),20%
same,pest or weed control at 70 g/ha,thistle (CIRAR),20%
same,pest or weed control at 4.375 g/ha,common poppy (PAPRH),80%
same,pest or weed control at 8.75 g/ha,common poppy (PAPRH),85%
same,pest or weed control at 17.5 g/ha,common poppy (PAPRH),85%
same,pest or weed control at 35 g/ha,common poppy (PAPRH),95%
same,pest or weed control at 70 g/ha,common poppy (PAPRH),100%
same,"% visual injury, Ob","spring barley (HORVS); 4.375 g/ha, applied alone",0%
same,"% visual injury, Ob","spring barley (HORVS); 8.75 g/ha, applied alone",15%
same,"% visual injury, Ob","spring barley (HORVS); 17.5 g/ha, applied alone",30%
same,"% visual injury, Ob","spring barley (HORVS); 35 g/ha, applied alone",40%
same,"% visual injury, Ob","spring barley (HORVS); 70 g/ha, applied alone",45%
same,pest or weed control at 17.5 g/ha,pigweed (AMARE); 17.5 g/ha,100%
same,pest or weed control at 35 g/ha,pigweed (AMARE); 35 g/ha,100%
Nc1c(F)c(-c2ccc3ccoc3c2)nc(C(=O)O)c1Cl [compound 20],pest or weed control at 4.375 g/ha,thistle (CIRAR),0%
same,pest or weed control at 8.75 g/ha,thistle (CIRAR),10%
same,pest or weed control at 17.5 g/ha,thistle (CIRAR),20%
same,pest or weed control at 35 g/ha,thistle (CIRAR),40%
same,pest or weed control at 70 g/ha,thistle (CIRAR),70%
same,pest or weed control at 4.375 g/ha,common poppy (PAPRH),85%
same,pest or weed control at 8.75 g/ha,common poppy (PAPRH),85%
same,pest or weed control at 17.5 g/ha,common poppy (PAPRH),95%
same,pest or weed control at 35 g/ha,common poppy (PAPRH),100%
same,pest or weed control at 70 g/ha,common poppy (PAPRH),95%
same,"% visual injury, Ob","spring barley (HORVS); 4.375 g/ha, applied alone",0%
same,"% visual injury, Ob","spring barley (HORVS); 8.75 g/ha, applied alone",10%
same,"% visual injury, Ob","spring barley (HORVS); 17.5 g/ha, applied alone",20%
same,"% visual injury, Ob","spring barley (HORVS); 35 g/ha, applied alone",30%
same,"% visual injury, Ob","spring barley (HORVS); 70 g/ha, applied alone",40%
same,"% visual injury, Ob","Russian thistle (SASKR); 4.375 g/ha, applied alone",20%
same,"% visual injury, Ob","Russian thistle (SASKR); 8.75 g/ha, applied alone",40%
same,"% visual injury, Ob","Russian thistle (SASKR); 17.5 g/ha, applied alone",60%
same,"% visual injury, Ob","Russian thistle (SASKR); 35 g/ha, applied alone",80%
same,"% visual injury, Ob","Russian thistle (SASKR); 70 g/ha, applied alone",80%

# From US9763445B2, “Safened herbicidal compositions comprising a pyridine carboxylic acid herbicide” (Dow AgroSciences, LLC, priority 2014, dated 2017)
